One data set has as its target human D2 receptor (Homo sapiens (Human), UniProt P14416). Description: Test 1: binding activity for human D2 receptor ([3H]Spiperone, CHO cell membrane fraction). Particulars: for D2 Ki/5-HT2A Ki / D2 Ki/5-HT7 Ki: selectivity ratio; for Ki: [3H]Spiperone, room temperature 60 minutes. Here is the method:
(§1) Ki value was evaluated from dissociation constant which was calculated from saturated binding tests, and a substrate concentration, and it was used as an index for binding affinity.

Data set [1] can be described thus: Test 3-1: metabolic stability test in human hepatic microsome. The format is in vitro ADME. Particulars: microsome 0.1 mg/mL, test compound 0.1 μmol/L, 37° C., 30 minutes. The gist of the method: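 Test compound at 0.1 μmol/L incubated 30 min at 37° C with human liver microsomes 0.1 mg/mL and NADPH 3.2 mmol/L in 25 mmol/L phosphate buffer, pH 7.4. Residual compound measured by LC-MS; stability (mL/min/mg protein) = −LN(residual ratio)/30/0.1.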

Another data set addresses hERG channel (Homo sapiens (Human), UniProt Q12809). Description: Test 5: inhibitory activity for hERG channel (whole cell patch clamp, hERG-CHO cells). The settings on record: for hERG inhibitory IC50 (nmol/L)/5-HT2A Ki (nmol/L) / hERG inhibitory IC50 (nmol/L)/5-HT7 Ki (nmol/L): ratio; for IC50: hERG-CHO cells, auto patch clamp. In kind it is cell-based. The gist of the method:
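Automated whole-cell patch clamp on CHO cells stably expressing hERG (IKr), pulses every 15 s. Each compound applied at 4 incremental concentrations. Value based on mean peak tail current from the last 3 stimulations at each concentration.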

Data set [2] can be described thus: Test 10: hepatotoxic risk, dansyl glutathione (dGSH) trapping assay. The settings on record: human hepatic microsome, 37° C., 60 minutes; N.D. means below detection limit. The format is in vitro ADME. Here is the method: Test 10: Evaluation of Hepatotoxic Risk (Dansyl Glutathione (dGSH) Trapping Assay)
The present compound was metabolized in hepatic microsome, and from the resulted metabolite, reactive metabolite which reacts with dancyl glutathione (dGSH) was detected and quantified as the following method. Measurement was carried out with a screening robot (Tecan) for metabolic reaction, and with a fluorescence detection UPLC system (Waters) for metabolite-dGSH binding concentration.
The present compound was dissolved in DMSO to prepare 10 mmol/L test compound solution. 7.6 mL of potassium phosphate buffer (500 mmol/L, pH 7.4), 1.9 mL of human hepatic microsome (Xenotech, 20 mg protein/mL), and 1.27 mL of pure water were mixed to prepare a microsome solution. To 3.78 mL of the microsome solution was added 0.67 mL of pure water to prepare a microsome (dGSH(−)) solution. To 6.48 mL of the microsome solution was added 1.14 mL of the dGSH solution (20 mmol/L) to prepare a microsome (dGSH(+)) solution. […] 33 mg of tris(2-carboxyethyl)phosphine (TECP) was dissolved in 115 mL of methanol to prepare a reaction stop solution.
12 μL of the test compound solution was mixed with 388 μL of pure water, and the mixture was dispensed in 50 μL each into 6 wells of a 96-well plate. […] To the “reaction group” and “unreacted group” was added the microsome (dGSH(+)) solution, and to the “dGSH-free group” was added the microsome (dGSH(−)) solution in 50 μL each. To the “reaction group” and “dGSH-free group” was added to the cofactor solution, and to the “unreacted group” was added pure water in 50 μL each. After incubated at 37° C. for 60 minutes, the reaction stop solution was added in 450 μL each to stop the reaction. […]
Metabolite-dGSH binding concentration was measured by the following conditions, using a fluorescence detection UPLC system. […]
Fluorescence intensity was corrected with the composition of organic solvent at the time of elution because fluorescence intensity changes depending on the composition of organic solvent.

Data set [3] addresses T1, human 5-HT2A receptor (Homo sapiens (Human), UniProt P28223). As to the kind of experiment: Test 1: binding activity for human 5-HT2A receptor ([3H]Ketanserin, CHO cell membrane fraction). The settings on record: room temperature 60 minutes. Here is the method:
as §1

For data set [4], the target named is T2, human 5-HT7 receptor (Homo sapiens (Human), UniProt P34969). As to the kind of experiment: Test 1: binding activity for human 5-HT7 receptor ([3H]SB-269970, CHO cell membrane fraction). Particulars: [3H]SB-269970, room temperature 60 minutes. The protocol: as §1
T2 sequence (P34969 whole entry): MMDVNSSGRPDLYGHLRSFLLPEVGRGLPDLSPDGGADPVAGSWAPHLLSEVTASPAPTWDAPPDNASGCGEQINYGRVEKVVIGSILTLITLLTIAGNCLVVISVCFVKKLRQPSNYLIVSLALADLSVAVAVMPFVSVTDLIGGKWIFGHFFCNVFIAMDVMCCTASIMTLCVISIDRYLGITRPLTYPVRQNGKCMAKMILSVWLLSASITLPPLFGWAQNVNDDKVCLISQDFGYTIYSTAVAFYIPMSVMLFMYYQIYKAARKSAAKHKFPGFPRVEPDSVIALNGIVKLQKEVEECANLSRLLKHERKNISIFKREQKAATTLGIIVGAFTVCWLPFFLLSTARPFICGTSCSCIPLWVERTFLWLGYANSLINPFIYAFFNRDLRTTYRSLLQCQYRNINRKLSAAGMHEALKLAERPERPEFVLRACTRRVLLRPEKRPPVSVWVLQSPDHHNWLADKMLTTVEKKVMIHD
Data set [5] addresses T1, human 5-HT2A receptor. Description: Test 2: antagonist activity for human 5-HT2A receptor (aequorin luminescence, CHO-K1 cells). The format is cell-based. Particulars: Gα16. Here is the method: Test 2: Evaluation of Antagonist Activity for Human 5-HT2A Receptor and Human 5-HT7 Receptor
Aequorin, Gα 16 protein, and each receptor were transiently expressed in CHO-K1 cells (Chinese hamster ovary). The cells were cultivated in a CO2 incubator at 37° C. overnight, seeded into a 384-well plate, and stood at room temperature for 2 hours. Each compound dissolved in DMSO was added thereto, and changes in luminescence were measured by FDSS/μCELL drug discovery screening support system (Hamamatsu Photonics K.K.). As for antagonist activity, inhibitory activity of each compound was calculated by setting the luminescence level of wells to which 10 μmol/L endogenous ligand was added as 100%.

Data set [6] addresses T2, human 5-HT7 receptor. As to the kind of experiment: Test 2: antagonist activity for human 5-HT7 receptor (aequorin luminescence, CHO-K1 cells). In kind it is cell-based. The settings on record: Gα16. The gist of the method:
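CHO-K1 cells transiently co-expressed aequorin, Gα16 and the respective receptor. They were cultured overnight at 37 °C, then held 2 h at room temperature before compound addition. Luminescence changes were recorded, and inhibition was expressed against wells given 10 μmol/L endogenous ligand (set as 100%).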

A short description of data set [7]: Test 9: intracerebral transferability in rats. In kind it is in vivo. Particulars: brain and plasma (unbound); SD or WKY rat, subcutaneous or oral, 0.5, 1 or 2 hours; unbound brain/plasma ratio.
Experimental: In this test, intracerebral transferability of the present compound was evaluated by the following method. The present compounds were subcutaneously administered as a solution in saline, or orally administered as a suspension in methyl cellulose to a 7-week-old SD or WKY rat. Plasma and brain were collected on 0.5 hour, 1 hour, or 2 hours after the administration in order to measure the drug concentrations in plasma and brain by LC-MS.
Binding rates of the present compound to plasma and brain protein were measured by equilibrium dialysis method.
Kp,uu,brain (unbound drug concentration ratio between brain/plasma) can be calculated by applying the compound concentrations in plasma and brain and the binding rates to plasma and brain protein obtained from the above test into the following formula. Kp,uu,brain=(Compound concentration in brain×(100−Binding rate to brain protein (%))/100)/(Compound concentration in plasma×(100−Binding rate to plasma protein (%))/100)
Data set [8] is described as follows: Test 3-2: metabolic stability test in human hepatic microsome. The settings on record: microsome 0.5 or 1.0 mg/mL, test compound 0.1 μmol/L, 30 or 60 minutes. The format is in vitro ADME. The protocol: Test 3-2: Metabolic Stability Test in Human Hepatic Microsome
For more accurate evaluation of the metabolic stability in human hepatic microsome, the metabolic stability of the present compound in human hepatic microsome was evaluated at an appropriate concentration of human hepatic microsome as mentioned below. Human hepatic microsome was obtained from Xenontech. Human hepatic microsome, NADPH, and each test compound were mixed in 25 mmol/L phosphate buffer solution (pH 7.4) to reach the following concentrations as shown below, and the mixture was incubated at 37° C. for 60 minutes. • Human hepatic microsome: 0.5 or 1.0 mg/mL • NAPDH: 3.2 mmol/L • Test compound: 0.1 μmol/L
The residual ratio of a test compound in each sample after 30 or 60 minutes was measured by LC-MS, and the metabolic stability in human hepatic microsome was calculated from the following formula. Metabolic stability in human hepatic microsome (mL/min/mg protein)=−LN (residual ratio)/reaction time/concentration of human hepatic microsome

The nature of data set [9]: Test 4: predictive test of human half life. The settings on record: calculated from rat distribution volume, serum unbound fraction and Test 3-2 stability. Here is the method:
Test 4: Predictive Test of Human Half Life
The present compound was intravenously administered to a rat as an aqueous solution of 0.01 mol/L hydrochloric acid. Blood was collected on 5 minutes, 15 minutes, 30 minutes, 1 hour, 2 hours, 4 hours, 6 hours, and 24 hours after the administration. Plasma was obtained from the collected blood, the drug concentration in plasma was measured by LC-MS, and the distribution volume of rat was calculated from the transition of the concentration.
The unbound fraction rate of the present compound in human or rat serum was measured by equilibrium dialysis method.
The half-life in human was calculated according to the following formula using the results of the distribution volume of rat, the unbound fraction rate in human or rat serum, and the metabolic stability in human hepatic microsome obtained in Test 3-2.

A value given as a limit tells only on which side of the number the result lay.

Chain of hERG channel (Q12809 whole entry): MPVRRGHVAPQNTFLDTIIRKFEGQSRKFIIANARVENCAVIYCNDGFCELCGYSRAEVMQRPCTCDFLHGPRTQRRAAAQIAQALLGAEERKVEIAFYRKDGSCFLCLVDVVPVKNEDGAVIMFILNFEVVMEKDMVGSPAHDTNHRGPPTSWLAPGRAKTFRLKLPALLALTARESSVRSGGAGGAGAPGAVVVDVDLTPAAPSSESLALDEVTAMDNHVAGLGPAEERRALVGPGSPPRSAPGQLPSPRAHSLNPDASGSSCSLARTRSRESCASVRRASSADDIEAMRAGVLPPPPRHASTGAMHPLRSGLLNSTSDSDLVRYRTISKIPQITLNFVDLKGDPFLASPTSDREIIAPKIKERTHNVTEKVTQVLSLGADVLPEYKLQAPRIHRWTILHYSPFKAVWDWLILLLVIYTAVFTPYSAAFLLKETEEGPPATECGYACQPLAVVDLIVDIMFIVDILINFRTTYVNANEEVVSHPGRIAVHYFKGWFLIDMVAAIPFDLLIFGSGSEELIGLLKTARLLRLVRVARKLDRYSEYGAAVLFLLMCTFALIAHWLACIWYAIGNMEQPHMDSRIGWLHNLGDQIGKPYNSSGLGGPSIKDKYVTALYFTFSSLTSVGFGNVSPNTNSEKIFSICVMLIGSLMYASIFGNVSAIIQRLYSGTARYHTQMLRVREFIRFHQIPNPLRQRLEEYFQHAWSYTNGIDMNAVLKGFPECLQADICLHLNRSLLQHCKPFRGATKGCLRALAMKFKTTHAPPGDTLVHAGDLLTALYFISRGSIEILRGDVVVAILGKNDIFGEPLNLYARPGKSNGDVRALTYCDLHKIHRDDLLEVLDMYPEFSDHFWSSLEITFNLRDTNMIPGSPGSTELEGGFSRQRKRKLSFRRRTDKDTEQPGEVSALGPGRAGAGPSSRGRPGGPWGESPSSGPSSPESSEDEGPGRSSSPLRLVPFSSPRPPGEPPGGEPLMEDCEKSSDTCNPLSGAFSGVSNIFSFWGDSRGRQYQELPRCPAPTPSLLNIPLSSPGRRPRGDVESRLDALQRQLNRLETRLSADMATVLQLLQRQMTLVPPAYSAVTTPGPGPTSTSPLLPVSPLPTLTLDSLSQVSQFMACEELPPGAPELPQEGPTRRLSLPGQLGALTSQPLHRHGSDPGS
Chain of human D2 receptor (P14416 whole entry): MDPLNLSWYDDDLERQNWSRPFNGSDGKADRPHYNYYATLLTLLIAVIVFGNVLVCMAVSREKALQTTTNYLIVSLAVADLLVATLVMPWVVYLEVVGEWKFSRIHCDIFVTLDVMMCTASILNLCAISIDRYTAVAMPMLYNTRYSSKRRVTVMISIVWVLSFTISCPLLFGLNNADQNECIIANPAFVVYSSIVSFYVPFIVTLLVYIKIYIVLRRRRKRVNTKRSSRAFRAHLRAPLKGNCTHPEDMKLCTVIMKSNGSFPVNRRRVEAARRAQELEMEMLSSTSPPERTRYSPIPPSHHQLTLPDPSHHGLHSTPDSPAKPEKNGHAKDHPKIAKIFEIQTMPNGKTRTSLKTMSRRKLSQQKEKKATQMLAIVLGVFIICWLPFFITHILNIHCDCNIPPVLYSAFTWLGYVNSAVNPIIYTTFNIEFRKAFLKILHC
T1 sequence (P28223 whole entry): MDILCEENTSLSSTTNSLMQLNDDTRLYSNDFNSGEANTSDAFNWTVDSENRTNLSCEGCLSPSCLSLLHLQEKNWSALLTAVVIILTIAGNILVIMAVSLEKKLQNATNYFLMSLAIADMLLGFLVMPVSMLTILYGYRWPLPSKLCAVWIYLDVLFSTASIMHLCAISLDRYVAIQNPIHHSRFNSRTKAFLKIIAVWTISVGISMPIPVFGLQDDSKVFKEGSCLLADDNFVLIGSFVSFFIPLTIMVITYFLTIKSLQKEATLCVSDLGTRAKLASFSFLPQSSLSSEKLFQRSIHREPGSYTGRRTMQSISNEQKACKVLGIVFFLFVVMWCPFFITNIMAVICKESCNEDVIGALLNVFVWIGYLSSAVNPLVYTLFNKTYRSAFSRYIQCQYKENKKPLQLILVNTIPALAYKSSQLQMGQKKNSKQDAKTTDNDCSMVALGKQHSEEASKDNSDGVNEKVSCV

For the compound `CCN(CCN1CCC(c2noc3cc(F)ccc23)CC1)C(=O)C(O)CNC(C)=O` (stereo not shown) [Example 71, 3-Acetamide-N-ethyl-N-{2-[4-(6-fluoro-1,2-benzoisoxazol-3-yl)piperidin-1-yl]ethyl}-2-hydroxypropanamide], at human D2 receptor, the “D2 Ki/5-HT2A Ki” value is 99 and the “D2 Ki/5-HT7 Ki” value is given as 36. The “Metabolic stability in human hepatic microsome” value (from here on “Metabolic stability”) in [1] is reported as less than 0.05 mL/min/mg protein. Moreover, the “hERG inhibitory IC50 (nmol/L)/5-HT2A Ki (nmol/L)” value on hERG channel was more than 4452. The Metabolite-dGSH binding concentration in data set [2] was determined as 0.132 µM.
On to `CCN(CCN1CCC(c2noc3cc(F)ccc23)CC1)C(=O)C(O)COC` (stereo not shown) [Example 18, N-Ethyl-N-{2-[4-(6-fluoro-1,2-benzoisoxazol-3-yl)piperidin-1-yl]ethyl}-2-hydroxy-3-methoxypropanamide], for which the inhibition constant Ki stood at 2.5 nM at human 5-HT2A receptor [3], 3.7 nM on human 5-HT7 receptor [4] and 198 nM on human D2 receptor. Besides, the half-maximal inhibitory concentration (IC50) at human 5-HT2A receptor [5] was 58 nM; on human 5-HT7 receptor [6] it was 72 nM; against hERG channel, 4.1 µM. Also, in data set [1], the “Metabolic stability” value was less than 0.05 mL/min/mg protein. The “hERG inhibitory IC50 (nmol/L)/5-HT2A Ki (nmol/L)” value on hERG channel was 1637. At hERG channel, the “hERG inhibitory IC50 (nmol/L)/5-HT7 Ki (nmol/L)” value came to 1097. Further, the Kp uu at 2 h in data set [7] was 0.56.
Turning to `CCN(CCN1CCC(c2noc3cc(F)ccc23)CC1)S(=O)(=O)C(C)CO` (stereo not shown) [Example 52], the Ki on human 5-HT2A receptor [3] is 298 nM; on human 5-HT7 receptor [4] it was 333 nM; on human D2 receptor, more than 10000 nM. Besides, the “D2 Ki/5-HT2A Ki” value at human D2 receptor was more than 34. Also, the “D2 Ki/5-HT7 Ki” value on human D2 receptor is listed as more than 30. For the same compound, the IC50 at human 5-HT2A receptor [5] turned out to be 946 nM; at human 5-HT7 receptor [6] it was 177 nM.
Take `CCN(CCN1CCC(c2noc3cc(F)c(C)cc23)CC1)C(=O)[C@H](C)O` [Example 13]: the IC50 against human 5-HT7 receptor [6] came to 81 nM; against hERG channel it was 2.9 µM. Also, the “Metabolic stability” value in [1] is 0.054 mL/min/mg protein. Moreover, the Metabolite-dGSH binding concentration in data set [2] is 0.214 µM.
For `CCN(CCN1CCC(c2noc3cc(F)ccc23)CC1)S(=O)(=O)CCO` [Example 51, N-Ethyl-N-{2-[4-(6-fluoro-1,2-benzoisoxazol-3-yl)piperidin-1-yl]ethyl}-2-hydroxyethane-1-sulfonamide], the Ki at human 5-HT7 receptor [4] amounted to 1.9 nM; at human D2 receptor it was 309 nM. For the same compound, the IC50 at human 5-HT7 receptor [6] is 62 nM; at hERG channel, 6.9 µM. The results for the “Metabolic stability” value in data set [1] and in data set [8] were less than 0.05 mL/min/mg protein and 0.016 mL/min/mg protein, respectively. Further, the Predicted half-life in data set [9] was 6 h.
Turning to `CCN(CCN1CCC(c2noc3cc(F)ccc23)CC1)C(=O)C1(O)CC1` [Example 24], the IC50 against human 5-HT2A receptor [5] is 7 nM. At human 5-HT7 receptor [6], the half-inhibitory concentration (IC50) turned out to be 41 nM. The “Metabolic stability” value in [1] was less than 0.05 mL/min/mg protein. In addition, at hERG channel, 5.5 µM corresponded to half-maximal inhibition (IC50), the “hERG inhibitory IC50 (nmol/L)/5-HT2A Ki (nmol/L)” value is 5203 and the “hERG inhibitory IC50 (nmol/L)/5-HT7 Ki (nmol/L)” value was 4988. In data set [2], the Metabolite-dGSH binding concentration stood at 7.645 µM.

The values are drawn from US11339151B2, “Aliphatic acid amide derivative” (Sumitomo Dainippon Pharma Co., Ltd., priority 2019, dated 2022).
